Where “and” joins values, the source holds several entries; their conditions need not be identical. Equal values may be shown once. Where a SMILES comes first, the peptide text is derived from it. Bridges are numbered along the chain shown (N, C = ends). [ ]: non-standard residue; d: D form. The star is where a group is joined. Ileψ(thiazoline)Cys = CC[C@H](C)[C@H](N)C1=N[C@H](C(=O)*)CS1; dOrn = NCCC[C@@H](N)C(=O)O
Key:
[1] = tested on: C. perfringens; set-up: species or system broiler chickens (Cobb 500); settings: in vivo
[2] = tested on: Clostridium perfringens; set-up: species or system broiler chickens (Cobb 500); settings: in vivo
[3] = tested on: Clostridium perfringens; assay type: in vivo, broiler chickens; settings: subclinical NE
[4] = raw data of individual birds, 0.5% egg powder, cells marked * removed as outlier

| Compound | % NE Mortality [1] [bc %] | Feed Intake D 0-28 [1] [bcd] | Lesion Score (0-3) [1] [bc] | Weight Gain D 0-28 [1] [bcd] | % NE Mortality [2] [bcde %] | Feed Intake D 0-28 [2] [bc] | Lesion Score (0-3) [2] [bc] | Weight Gain D 0-28 [2] [bcd] | Weight gain (g) day 0-6 post challenge, Average ([3]; group average, 0.5% egg powder) [g] | Weight gain (g) day 0-11 post challenge, Average ([3]; group average, 0.5% egg powder) [g] | Lesion Score - day 2 post challenge, Average ([3]; group average, egg powder 0.5% in feed (Vir 20 g/ton), scale 0 to 4) | Weight gain (g) day 0-6 post challenge [3, 4] | Weight gain (g) day 0-11 post challenge [3, 4] | Lesion Score - day 2 post challenge ([3]; raw data of individual birds, egg powder 0.5% in feed (Vir 20 g/ton), scale 0 (none) to 4 (high)) |
| --- | --- | --- | --- | --- | --- | --- | --- | --- | --- | --- | --- | --- | --- | --- |
| CC[C@H](C)[C@H](N)C1=N[C@H](C(=O)N[C@@H](CC(C)C)C(=O)N[C@H](CCC(=O)O)C(=O)N[C@H](C(=O)N[C@H]2CCCCNC(=O)[C@H](CC(N)=O)NC(=O)[C@@H](CC(=O)O)NC(=O)[C@H](Cc3cnc[nH]3)NC(=O)[C@@H](Cc3ccccc3)NC(=O)[C@H]([C@@H](C)CC)NC(=O)[C@@H](CCCN)NC2=O)[C@@H](C)CC)CS1 [bacitracin] ({Ileψ(thiazoline)Cys}-L[dE]IK[dOrn]I[dF]H[dD]N; lactam 4-C) | 9.4 | 6.708 | 1.3 | 0.648 | 10.9 | 8.040 | 1.0 | 0.590 |  |  |  |  |  |  |
| Virginiamycin |  |  |  |  |  |  |  |  | 226 | 570 | 0.5 | 267 g and 211 g (2×) and 256 g and 252 g and 170 g and 213 g and 289 g and 162 g (2×) and 229 g and 241 g and 203 g and 157 g and 195 g and 238 g and 321 g and 233 g and 319 g and 182 g and 239 g | 618 g and 554 g and 520 g and 540 g and 467 g and 479 g and 544 g and 566 g and 420 g and 552 g and 607 g and 686 g and 568 g and 723 g and 709 g | 1 (3×) and 0 (3×) |
